pEC50: −log10 of the molar value. Several values for one entry are separate records, joined by “and”; a condition that tells them apart may be missing. Identical values can stand only once. Entries after “also recorded” stand apart in the source; their conditions may differ.
Experiments:
DmelOrco I181S = DmelOrco I181S (Drosophila melanogaster, UniProt Q9VNB5, I181S); experiment: TEVC recording of VUAA1-induced current, DmelOrco I181S in Xenopus oocytes; assay type: cell-based; parameters: VUAA1-induced current, i181S / VUAA1-induced current, I181S: unit not given here; conditions: for VUAA1-induced current, I181S: Fig.4i dose-response
DmelOrco I181S, sequence (Q9VNB5 whole entry I181S, the tested form may be a part): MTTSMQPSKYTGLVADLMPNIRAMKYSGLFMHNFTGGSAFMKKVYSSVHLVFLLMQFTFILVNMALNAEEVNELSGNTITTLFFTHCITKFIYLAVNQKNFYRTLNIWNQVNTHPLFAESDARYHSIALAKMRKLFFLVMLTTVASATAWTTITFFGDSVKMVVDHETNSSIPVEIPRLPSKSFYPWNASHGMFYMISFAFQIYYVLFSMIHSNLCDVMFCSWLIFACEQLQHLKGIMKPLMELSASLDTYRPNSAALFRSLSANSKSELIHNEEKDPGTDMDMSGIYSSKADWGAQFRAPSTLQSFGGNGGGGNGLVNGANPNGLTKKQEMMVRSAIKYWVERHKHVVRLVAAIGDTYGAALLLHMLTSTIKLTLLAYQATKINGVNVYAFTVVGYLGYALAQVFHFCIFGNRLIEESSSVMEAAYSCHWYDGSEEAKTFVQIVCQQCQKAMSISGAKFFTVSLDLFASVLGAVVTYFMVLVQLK
From the text: (§1) All Orco gene sequences were optimized[63] for protein expression in Xenopus laevis oocytes with the GenSmartTM Codon optimization Tool and subcloned into a pGEMHE-derived vector. The wildtype gene of Drosophila melanogaster Orco (DmelOrco) was synthesized by Genscript and subcloned with XmaI/XhoI cloning sites. Site-directed mutagenesis of DmelOrco was done by PCR with the Q5® site directed mutagenesis kit (NEB) using primers optimized with the NEBase Changer online tool and following the supplier’s protocol. After transformation of commercial competent bacteria (XL10 Gold) by standard heat-shock protocol and overnight culture in ampicillin-containing LB plates, positive clones were identified by electrophoretic restriction profile and external sequencing (Genewiz). DNAs of positive clones were amplified with Qiagen MidiPrep Kit and the ORF was fully sequenced. For in vitro transcription, DNAs were linearized with restriction enzyme NotI that cuts a unique site in the 3′ region of the polyA tail. The linearized DNAs were purified by the standard phenol:chloroform extraction method and transcribed into mRNA using the T7 ultra mMessage mMachine kit (Thermo Fisher Scientific). mRNAs were purified with the NucleoSpin RNA plus XS kit (Machery-Nagel). DNA and RNA were analyzed by agarose-gel electrophoresis and quantified by spectrophotometry.
(§2) Xenopus laevis oocytes were prepared, as previously described. Briefly, oocytes were defolliculated after surgical retrieval by type 1 A collagenase over 2-3 h under smooth horizontal agitation. They were manually selected and incubated at 19 °C in modified-Barth’s solution (1 mM KCl, 0.82 mM MgSO4, 88 mM NaCl, 2.4 mM NaHCO3, 0.41 mM CaCl2, Ca(NO3)2 0.3 mM, 16 mM HEPES, pH 7.4) supplemented with 100 U mL^−1 of penicillin and streptomycin and 0.1 mg mL^−1 of gentamycin. Each oocyte was micro-injected with the Nanoject instrument (Drummond) with 50 nL of 20 ng of mRNA coding for the Orco of interest. Injected oocytes were incubated individually in 96-well plates for 4 days at 19 °C in the same buffer. Different batches of oocytes have been tested per construct. The results of the mutants of interest have been confirmed by a second set of experiments comparing the amplitudes with WT in the same day and from the same batch of oocytes (Supplementary Fig. 11).
(§3) Whole cell currents were recorded with the two-electrode voltage-clamp (TEVC) technique with the HiClamp robot (MultiChannel System). Microelectrodes were filled with 3 M KCl. The high K^+ buffer used for recordings was composed of 91 mM KCl, 1 mM MgCl2, 1.8 mM CaCl2, 5 mM HEPES, pH 7.4. Membrane voltage was clamped to −50 mV and VUAA1 was applied for 60 s. Data were extracted with M. Vivaudou’s programs[65] and statistically analyzed with Prism 8 (Graphpad).

DmelOrco V206A = DmelOrco V206A (Drosophila melanogaster, UniProt Q9VNB5, V206A); experiment: TEVC recording of VUAA1-induced current, DmelOrco V206A in Xenopus oocytes; assay type: cell-based; parameters: VUAA1-induced current, V206A: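 current amplitude in µA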
DmelOrco V206A, sequence (Q9VNB5 whole entry V206A, the tested form may be a part): as the sequence (Q9VNB5 whole entry I181S, the tested form may be a part) above, with S181I, V206A counted along it
From the text: as §1, with “The linearized DNAs were purified by the standard phenol:chloroform extraction method and transcribed into mRNA using the T7 ultra mMessage mMachine kit (Thermo Fisher Scientific). mRNAs were purified with the NucleoSpin RNA plus XS kit (Machery-Nagel).” left out, “spectrophotometry. […]” for “spectrophotometry.”
(§4) Whole cell currents were recorded with the two-electrode voltage-clamp (TEVC) technique with the HiClamp robot (MultiChannel System). […] Data were extracted with M. Vivaudou’s programs[65] and statistically analyzed with Prism 8 (Graphpad).

DmelOrco V206W = DmelOrco V206W (Drosophila melanogaster, UniProt Q9VNB5, V206W); experiment: TEVC recording of VUAA1-induced current, DmelOrco V206W in Xenopus oocytes; assay type: cell-based; parameters: VUAA1-induced current, V206W: unit not given here; conditions: for VUAA1-induced current, V206W: individual oocytes
DmelOrco V206W, sequence (Q9VNB5 whole entry V206W, the tested form may be a part): as the sequence (Q9VNB5 whole entry I181S, the tested form may be a part) above, with S181I, V206W counted along it
From the text: as §1, §2, §3

DmelOrco K373E = DmelOrco K373E (Drosophila melanogaster, UniProt Q9VNB5, K373E); experiment: TEVC recording of VUAA1-induced current, DmelOrco K373E in Xenopus oocytes; assay type: cell-based; parameters: VUAA1-induced current, K373E: unit not given here
DmelOrco K373E, sequence (Q9VNB5 whole entry K373E, the tested form may be a part): as the sequence (Q9VNB5 whole entry I181S, the tested form may be a part) above, with S181I, K373E counted along it
From the text: as §1, with “The linearized DNAs were purified by the standard phenol:chloroform extraction method and transcribed into mRNA using the T7 ultra mMessage mMachine kit (Thermo Fisher Scientific). mRNAs were purified with the NucleoSpin RNA plus XS kit (Machery-Nagel).” left out, “spectrophotometry. […]” for “spectrophotometry.”
as §4

DmelOrco Y397S = DmelOrco Y397S (Drosophila melanogaster, UniProt Q9VNB5, Y397S); experiment: TEVC recording of VUAA1-induced current, DmelOrco Y397S in Xenopus oocytes; assay type: cell-based
DmelOrco Y397S, sequence (Q9VNB5 whole entry Y397S, the tested form may be a part): as the sequence (Q9VNB5 whole entry I181S, the tested form may be a part) above, with S181I, Y397S counted along it
From the text: as §1, with “The linearized DNAs were purified by the standard phenol:chloroform extraction method and transcribed into mRNA using the T7 ultra mMessage mMachine kit (Thermo Fisher Scientific). mRNAs were purified with the NucleoSpin RNA plus XS kit (Machery-Nagel).” left out, “spectrophotometry. […]” for “spectrophotometry.”
as §4

DmelOrco Y397F = DmelOrco Y397F (Drosophila melanogaster, UniProt Q9VNB5, Y397F); experiment: TEVC recording of VUAA1-induced current, DmelOrco Y397F in Xenopus oocytes; assay type: cell-based; parameters: VUAA1-induced current, Y397F: unit not given here
DmelOrco Y397F, sequence (Q9VNB5 whole entry Y397F, the tested form may be a part): as the sequence (Q9VNB5 whole entry I181S, the tested form may be a part) above, with S181I, Y397F counted along it
From the text: as §1, with “The linearized DNAs were purified by the standard phenol:chloroform extraction method and transcribed into mRNA using the T7 ultra mMessage mMachine kit (Thermo Fisher Scientific). mRNAs were purified with the NucleoSpin RNA plus XS kit (Machery-Nagel).” left out, “spectrophotometry. […]” for “spectrophotometry.”
as §4

DmelOrco F84W = DmelOrco F84W (Drosophila melanogaster, UniProt Q9VNB5, F84W); experiment: TEVC recording of VUAA1-induced current, DmelOrco F84W in Xenopus oocytes; assay type: cell-based; conditions: 500 µM VUAA1, TEVC
DmelOrco F84W, sequence (Q9VNB5 whole entry F84W, the tested form may be a part): as the sequence (Q9VNB5 whole entry I181S, the tested form may be a part) above, with F84W, S181I counted along it
From the text: as §1, with “The linearized DNAs were purified by the standard phenol:chloroform extraction method and transcribed into mRNA using the T7 ultra mMessage mMachine kit (Thermo Fisher Scientific). mRNAs were purified with the NucleoSpin RNA plus XS kit (Machery-Nagel).” left out, “spectrophotometry. […]” for “spectrophotometry.”
as §4

AalbOrco = experiment: TEVC recording of VUAA1-induced current, AalbOrco in Xenopus oocytes; assay type: cell-based, Aedes albopictus; conditions: 500 µM VUAA1, TEVC, each value one oocyte, Fig.S1c source data
From the text: as §1, with “For in vitro transcription, DNAs were linearized with restriction enzyme NotI that cuts a unique site in the 3′ region of the polyA tail. The linearized DNAs were purified by the standard phenol:chloroform extraction method and transcribed into mRNA using the T7 ultra mMessage mMachine kit (Thermo Fisher Scientific). mRNAs were purified with the NucleoSpin RNA plus XS kit (Machery-Nagel).” left out, “spectrophotometry. […]” for “spectrophotometry.”
Whole cell currents were recorded with the two-electrode voltage-clamp (TEVC) technique with the HiClamp robot (MultiChannel System). […] Data were extracted with M. Vivaudou’s programs[65] and statistically analyzed with Prism 8 (Graphpad). […]
37 from different species expressed in Xenopus oocytes and recorded by TEVC. […]

AgamOrco/AgamOR65 = conditions: AgamOrco/AgamOR65; ref Tailor et al. 1; cited from earlier work
MhraOR5 = system: MhraOR5; parameters: method as in PMID 34349260; conditions: cited from earlier work
MdesOrco H81F = conditions: H81 replaced by phenylalanine; cited from earlier work

CCc1ccc(NC(=O)CSc2nnc(-c3cccnc3)n2CC)cc1 [VUAA1, N-(4-ethylphenyl)−2-((4-ethyl-5-(3-pyridinyl)−4H-1,2,4-triazol-3-yl)thio)acetamide]
pEC50 (DmelOrco I181S): 3.99
Current induced by VUAA1 (median) (DmelOrco I181S; 500 µM VUAA1, TEVC, I181S): 1.40 µA
Response to VUAA1 compared with WT (DmelOrco I181S; 500 µM VUAA1, TEVC, I181S): clear loss of VUAA1 activation
VUAA1-induced current, i181S (DmelOrco I181S; Fig.4b, individual oocytes): 1.9 and 2 and 1.3 and 0.38 and 0.78 and 1.7 and 1.5 and 2.2 and 2.1 and 1.2 and 1.4 and 0.46 and 1.1 and 1.8 and 2.3
VUAA1-induced current, I181S (DmelOrco I181S; VUAA1 10 µM (Log(M) -5), individual oocytes): 0.26 and 0.25 and 0.11
VUAA1-induced current, I181S (DmelOrco I181S; VUAA1 25 µM (Log(M) -4.6), individual oocytes): 0.22 (2×) and 0.2 and 0.06 and 0.1 and 0.03 and 0.21 and 0.09
VUAA1-induced current, I181S (DmelOrco I181S; VUAA1 50 µM (Log(M) -4.3), individual oocytes): 0.39 and 0.35 and 0.1 and 0.28 and 0.07 and 0.3 and 0.34 and 0.19
VUAA1-induced current, I181S (DmelOrco I181S; VUAA1 100 µM (Log(M) -4), individual oocytes): 1.03 and 0.88 and 0.21 and 0.74 and 0.26 and 0.4 and 0.43 and 0.32
VUAA1-induced current, I181S (DmelOrco I181S; VUAA1 500 µM (Log(M) -3.3), individual oocytes): 1.45 and 1.2 and 0.29 and 2.29 and 0.87 and 0.44 and 0.47 and 0.39
VUAA1-induced current, I181S (DmelOrco I181S; VUAA1 1000 µM (Log(M) -3), individual oocytes): 1.69 and 1.33 and 0.34 and 1.97 and 0.83 and 0.44 and 0.5 and 0.43
Imax (DmelOrco I181S; concentration-effect curve of VUAA1, TEVC, I181S): 0.94 µA
Response to VUAA1 compared with WT (DmelOrco V206A; 500 µM VUAA1, TEVC, V206A): did not significantly affect the amplitude of activation
VUAA1-induced current, V206A (DmelOrco V206A; Fig.4b, individual oocytes): 5.13 and 5.19 and 4.77 and 3.78 and 5.39 and 5.08 and 2.86 and 2.36
Response to VUAA1 compared with WT (DmelOrco V206W; 500 µM VUAA1, TEVC, V206W): significantly reduced or abolished the activation; also recorded: significant decrease in the response
VUAA1-induced current, V206W (DmelOrco V206W; Fig.4b): 0.24 and 0.29 and 1.03 and 0.65 and 0.59 and 0.7 and 0.64 and 0.44 and 0.27
VUAA1-induced current, V206W (DmelOrco V206W; Fig.4i dose-response, VUAA1 10 µM (Log(M) -5)): 0.05 and 0.36 and 0.03 and 0.04 (2×) and 0.02 (2×) and 0.01
VUAA1-induced current, V206W (DmelOrco V206W; Fig.4i dose-response, VUAA1 25 µM (Log(M) -4.6)): 0.02 (2×) and 0.37 and 0.05 and 0.04 and 0.03 (3×)
VUAA1-induced current, V206W (DmelOrco V206W; Fig.4i dose-response, VUAA1 50 µM (Log(M) -4.3)): 0.01 and 0.48 and 0.1 and 0.04 (2×) and 0.05 (2×) and 0.03
VUAA1-induced current, V206W (DmelOrco V206W; Fig.4i dose-response, VUAA1 100 µM (Log(M) -4)): 0.01 and 0.59 and 0.18 and 0.05 and 0.19 and 0 and 0.22 and 0.1
VUAA1-induced current, V206W (DmelOrco V206W; Fig.4i dose-response, VUAA1 500 µM (Log(M) -3.3)): 0.07 (2×) and 0.56 and 0.2 and 0.4 and 0.09 and 0.5 and 0.18
VUAA1-induced current, V206W (DmelOrco V206W; Fig.4i dose-response, VUAA1 1000 µM (Log(M) -3)): 0.12 and 0.59 and 0.2 and 0.07 and 0.5 and 0.11 and 0.61 and 0.24
Imax (DmelOrco V206W; concentration-effect curve of VUAA1, TEVC, V206W): 0.33 µA
Current induced by VUAA1 (median) (DmelOrco K373E; 500 µM VUAA1, TEVC, K373E): 7.47 µA
VUAA1-induced current, K373E (DmelOrco K373E; Fig.4b, individual oocytes): 4.46 and 4.23 and 7.21 and 7.53 and 6.82 and 10.02 and 4.07 and 5.42 and 9.17 and 11.32 and 9.58 and 7.4 and 16.4 and 9.48 and 7.37 and 12.12
Response to VUAA1 compared with WT (DmelOrco Y397S; 500 µM VUAA1, TEVC, Y397S): no significant effect; also recorded: did not significantly change the amplitude of activation
VUAA1-induced current, Y397S (DmelOrco Y397S; Fig.4b, individual oocytes): 0.98 and 1.78 and 4.23 and 0.82 and 0.77 and 1.48 and 8.3 and 6.29 and 5.87 and 5.52 and 1.76 and 2.18 and 1.83
Response to VUAA1 compared with WT (DmelOrco Y397F; 500 µM VUAA1, TEVC, Y397F): did not significantly change the amplitude of activation
VUAA1-induced current, Y397F (DmelOrco Y397F; Fig.4b, individual oocytes): 14.1 and 7.4 and 4.67 and 7.65 and 5.6 and 7.22 and 3.47 and 4.51 and 1.74 and 9.4 and 9.69 and 15.89
Response to VUAA1 compared with WT (DmelOrco F84W): did not induce a significant change
Current amplitude induced by 500 µM VUAA1 (single recordings) (AalbOrco): 2.82 µA and 1.66 µA
pEC50 (AgamOrco/AgamOR65): 4.43
Activation of MhraOR5 (MhraOR5): not by VUAA1
Response of MdesOrco H81F to VUAA1 (MdesOrco H81F): induced a response to VUAA1
